Test results from US20230348418A1, “ISOINDOLINONE COMPOUNDS” (Monte Rosa Therapeutics, Inc., priority 2021, published 2023).
Read-outs that look alike come from different tables or passages of the source.

Assays:
IKZF3 (Aiolos) = target: T1, IKZF3 (Aiolos) (Homo sapiens, UniProt Q9UKT9); experiment: Western blot selectivity assay in MM1S cells: IKZF3; format: cell-based; set-up: key: A represents a no degradation observed at 30 μM; B represents trace degradation at 30 μM (below 20%); C represents weak degradation at 30 μM (below 50%); D represents degradation at 30 μM (>90%); E represents degradation at 3 μM (>90%); F represents degradation at 0.3 μM (>90%); conditions: MM1S cells, 0.3, 3 and 30 μM, 6 hours
T1 construct: endogenous in cells; host or cells: MM1S (ATCC CRL-2974)
T1 sequence (Q96SW2 whole entry partner): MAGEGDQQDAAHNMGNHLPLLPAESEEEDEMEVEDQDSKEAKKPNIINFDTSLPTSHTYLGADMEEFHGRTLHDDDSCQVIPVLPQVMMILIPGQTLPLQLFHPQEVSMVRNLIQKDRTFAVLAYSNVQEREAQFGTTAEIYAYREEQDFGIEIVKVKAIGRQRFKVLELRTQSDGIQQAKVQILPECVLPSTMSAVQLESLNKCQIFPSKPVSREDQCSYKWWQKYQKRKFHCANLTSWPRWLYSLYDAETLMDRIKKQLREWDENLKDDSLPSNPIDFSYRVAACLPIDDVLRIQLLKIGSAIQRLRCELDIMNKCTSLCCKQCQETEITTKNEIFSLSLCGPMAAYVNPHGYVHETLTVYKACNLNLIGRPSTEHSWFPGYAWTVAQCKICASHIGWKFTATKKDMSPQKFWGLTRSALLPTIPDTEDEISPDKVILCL
T1 sequence (Q16531 2-1140 partner limits assumed): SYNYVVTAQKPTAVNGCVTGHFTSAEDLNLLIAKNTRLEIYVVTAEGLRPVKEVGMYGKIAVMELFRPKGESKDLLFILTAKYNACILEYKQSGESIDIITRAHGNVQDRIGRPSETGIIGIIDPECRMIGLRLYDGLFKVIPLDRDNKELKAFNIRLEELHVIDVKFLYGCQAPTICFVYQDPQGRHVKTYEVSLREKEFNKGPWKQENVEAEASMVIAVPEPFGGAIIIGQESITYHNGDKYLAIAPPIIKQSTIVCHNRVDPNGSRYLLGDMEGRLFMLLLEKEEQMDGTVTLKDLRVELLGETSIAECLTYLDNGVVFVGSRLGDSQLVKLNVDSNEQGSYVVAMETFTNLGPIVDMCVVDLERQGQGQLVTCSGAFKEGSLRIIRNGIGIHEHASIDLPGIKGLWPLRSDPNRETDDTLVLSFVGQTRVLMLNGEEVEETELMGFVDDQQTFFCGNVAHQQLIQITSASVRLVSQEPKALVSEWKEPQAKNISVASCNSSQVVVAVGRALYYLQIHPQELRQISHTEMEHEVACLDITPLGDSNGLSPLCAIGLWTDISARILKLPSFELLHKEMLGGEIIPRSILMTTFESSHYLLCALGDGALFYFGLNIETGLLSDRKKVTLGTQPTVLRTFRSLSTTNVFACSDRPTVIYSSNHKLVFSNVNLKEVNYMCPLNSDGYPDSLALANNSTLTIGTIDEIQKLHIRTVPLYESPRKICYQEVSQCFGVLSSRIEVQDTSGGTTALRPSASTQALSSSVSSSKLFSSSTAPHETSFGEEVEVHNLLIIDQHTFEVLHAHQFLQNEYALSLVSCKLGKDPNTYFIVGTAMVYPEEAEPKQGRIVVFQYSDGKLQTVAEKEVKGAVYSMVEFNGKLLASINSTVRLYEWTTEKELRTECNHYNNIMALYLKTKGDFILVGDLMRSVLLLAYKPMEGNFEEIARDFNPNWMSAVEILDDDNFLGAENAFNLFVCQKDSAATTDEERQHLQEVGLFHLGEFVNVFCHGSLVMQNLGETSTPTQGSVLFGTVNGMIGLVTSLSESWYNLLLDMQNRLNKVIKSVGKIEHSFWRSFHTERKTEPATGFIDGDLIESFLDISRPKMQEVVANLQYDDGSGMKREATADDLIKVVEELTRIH
T1 sequence (Q9UKT9 whole entry): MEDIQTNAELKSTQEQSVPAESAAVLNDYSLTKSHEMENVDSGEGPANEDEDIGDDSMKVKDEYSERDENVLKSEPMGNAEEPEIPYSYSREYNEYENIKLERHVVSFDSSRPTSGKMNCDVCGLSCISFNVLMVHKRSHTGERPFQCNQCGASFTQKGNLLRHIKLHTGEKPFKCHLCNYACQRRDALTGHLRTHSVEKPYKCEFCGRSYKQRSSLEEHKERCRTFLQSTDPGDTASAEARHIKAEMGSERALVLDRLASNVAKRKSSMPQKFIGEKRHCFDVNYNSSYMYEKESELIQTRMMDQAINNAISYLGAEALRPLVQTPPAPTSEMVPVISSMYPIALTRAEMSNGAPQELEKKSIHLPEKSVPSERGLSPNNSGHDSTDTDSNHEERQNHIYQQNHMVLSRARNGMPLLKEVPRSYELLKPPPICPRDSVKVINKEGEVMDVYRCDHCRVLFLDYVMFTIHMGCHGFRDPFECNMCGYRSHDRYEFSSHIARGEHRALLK
Method: MM1S cells were purchased from ATCC (cat. Number CRL-2974), sub-cultured in 90% RPMI 1640 with 10% FBS, supplemented with 1×P/S and incubated at 37° C., 5% CO2. Compounds were stored as 10 mM DMSO stock. For the assay, MM1S cells (3 million cells/well) were plated in 6-well plates and incubated over night. Cells were treated with respective compounds using a serial dilution: 0.3 μM, 3 μM and 30 μM as well as a vehicle only (DMSO) control for 6 hours. Media with suspension cells was subsequently transferred to 15 mL conical tubes, wells rinsed twice with ice-cold PBS and merged with cell suspension in respective 15 mL conical tube. Cells were spinned down, supernatant aspirated, pellets resuspended in ice-cold PBS and transferred to microtubes. Cells were spinned down, supernatant aspirated and pellets resuspended in 120 μL RIPA lysis buffer supplemented with protease and phosphatase inhibitors. Cell lysates were incubated on ice for 20 minutes followed by centrifugation at >20,000×g for 5 min. Supernatants were transferred to fresh microtubes and stored at −80° C. Total protein concentration was determined using a BCA assay with a BSA standard curve and concentration of all samples was adjusted to 1 mg/mL. 25 μL 4×LDS sample buffer supplemented with 100 mM DTT was added to 75 μL sample. Samples were centrifuged (8,000×g, 1 min) and incubated at 95° C. for 5 min followed by another centrifugation step (8,000×g, 1 min). 20 μL of each sample was loaded on a 4-12% gel alongside a protein molecular weight marker. Gels were run in the presence of MOPS buffer at 80 Volts for 30 min, followed by 120 Volts for 1.5 h and proteins subsequently transferred onto nitrocellulose membranes at 20 Volts for 7 min using an iBlot2 Gel Transfer Device. Membranes were then cut horizontally into two pieces, covering 80-50 kDa and 50-25 kDa. Blocking the membranes was performed by gently shaking in 5% (w/v) skim milk in TSB-T for 1 hr at room temperature. All primary antibodies were used at a 1/1000 in 5% (w/v) BSA dissolved in TBST and incubated with membranes over night at 4° C. Anti-IKZF1 (Ikaros; D6N9Y; 14859S), anti-IKZF3 (Aiolos; D1C1E; 15103S) antibodies were purchased from Cell Signalling Technology, anti-ZFP91 antibody from Bethyl laboratories, anti-GSPT1 from Sigma Aldrich (HPA052488) and anti CK1alpha from AbCam (ab206652). After three washes with 1×TBST for 5 min, HRP-coupled secondary antibodies diluted in 5% (w/v) BSA/TBST (Goat Anti-Rb IgG, dil. 1/10,000; Goat Anti-Mouse IgG, dil. 1/5000) were added for 1 hr at room temperature. […] Chemiluminescence signals were then detected using a LAS-4000 system with default settings and signals quantified using Image Studio Lite software (version 5.2). […]

GSPT1 [1] = target: T2, GSPT1 (Homo sapiens, UniProt P15170+Q96SW2); experiment: Western blot selectivity assay in MM1S cells: GSPT1; format: cell-based; set-up: endogenous in cells; host or cells: MM1S (ATCC CRL-2974); conditions: MM1S cells, 0.3, 3 and 30 μM, 6 hours
T2 sequence (P15170 whole entry): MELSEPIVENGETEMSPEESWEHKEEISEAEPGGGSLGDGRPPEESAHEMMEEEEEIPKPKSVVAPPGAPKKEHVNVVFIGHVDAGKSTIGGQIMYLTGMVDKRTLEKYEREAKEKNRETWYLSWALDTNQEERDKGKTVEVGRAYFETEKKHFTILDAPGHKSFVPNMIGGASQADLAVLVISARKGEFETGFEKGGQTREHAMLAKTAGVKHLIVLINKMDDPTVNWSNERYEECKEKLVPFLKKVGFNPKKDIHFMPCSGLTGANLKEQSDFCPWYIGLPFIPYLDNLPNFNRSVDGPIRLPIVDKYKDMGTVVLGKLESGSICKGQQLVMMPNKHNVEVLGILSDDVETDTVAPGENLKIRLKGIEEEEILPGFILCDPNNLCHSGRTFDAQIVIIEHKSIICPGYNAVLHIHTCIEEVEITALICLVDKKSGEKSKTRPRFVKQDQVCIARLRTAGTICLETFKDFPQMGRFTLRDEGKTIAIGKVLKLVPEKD
T2 sequence (Q96SW2 whole entry): as the sequence (Q96SW2 whole entry partner) above
T2 sequence (Q16531 2-1140 partner limits assumed): as the sequence (Q16531 2-1140 partner limits assumed) above
Method: (§1) MM1S cells were purchased from ATCC (cat. Number CRL-2974), sub-cultured in 90% RPMI 1640 with 10% FBS, supplemented with 1×P/S and incubated at 37° C., 5% CO2. Compounds were stored as 10 mM DMSO stock. For the assay, MM1S cells (3 million cells/well) were plated in 6-well plates and incubated over night. Cells were treated with respective compounds using a serial dilution: 0.3 μM, 3 μM and 30 μM as well as a vehicle only (DMSO) control for 6 hours. Media with suspension cells was subsequently transferred to 15 mL conical tubes, wells rinsed twice with ice-cold PBS and merged with cell suspension in respective 15 mL conical tube. Cells were spinned down, supernatant aspirated, pellets resuspended in ice-cold PBS and transferred to microtubes. Cells were spinned down, supernatant aspirated and pellets resuspended in 120 μL RIPA lysis buffer supplemented with protease and phosphatase inhibitors. Cell lysates were incubated on ice for 20 minutes followed by centrifugation at >20,000×g for 5 min. Supernatants were transferred to fresh microtubes and stored at −80° C. Total protein concentration was determined using a BCA assay with a BSA standard curve and concentration of all samples was adjusted to 1 mg/mL. 25 μL 4×LDS sample buffer supplemented with 100 mM DTT was added to 75 μL sample. Samples were centrifuged (8,000×g, 1 min) and incubated at 95° C. for 5 min followed by another centrifugation step (8,000×g, 1 min). 20 μL of each sample was loaded on a 4-12% gel alongside a protein molecular weight marker. Gels were run in the presence of MOPS buffer at 80 Volts for 30 min, followed by 120 Volts for 1.5 h and proteins subsequently transferred onto nitrocellulose membranes at 20 Volts for 7 min using an iBlot2 Gel Transfer Device. Membranes were then cut horizontally into two pieces, covering 80-50 kDa and 50-25 kDa. Blocking the membranes was performed by gently shaking in 5% (w/v) skim milk in TSB-T for 1 hr at room temperature. All primary antibodies were used at a 1/1000 in 5% (w/v) BSA dissolved in TBST and incubated with membranes over night at 4° C. Anti-IKZF1 (Ikaros; D6N9Y; 14859S), anti-IKZF3 (Aiolos; D1C1E; 15103S) antibodies were purchased from Cell Signalling Technology, anti-ZFP91 antibody from Bethyl laboratories, anti-GSPT1 from Sigma Aldrich (HPA052488) and anti CK1alpha from AbCam (ab206652). After three washes with 1×TBST for 5 min, HRP-coupled secondary antibodies diluted in 5% (w/v) BSA/TBST (Goat Anti-Rb IgG, dil. 1/10,000; Goat Anti-Mouse IgG, dil. 1/5000) were added for 1 hr at room temperature. After three washes with 1×TBST (5 minutes each), membranes were incubated with ECL reagent for 1 min at room temperature. Chemiluminescence signals were then detected using a LAS-4000 system with default settings and signals quantified using Image Studio Lite software (version 5.2). Membrane parts previously incubated with antibody against CK1alpha were stripped off antibodies by incubating with stripping buffer for 30 minutes followed by three washed with TBST (5 min each), blocking with 5% (w/v) skim milk for 1 hr, and incubation with primary antibody against GAPDH overnight at 4° C. Subsequent washes, incubation with secondary antibody and signal acquisition were performed as described above.

IKZF1 (Ikaros) = target: T3, IKZF1 (Ikaros) (Homo sapiens, UniProt Q13422); experiment: Western blot selectivity assay in MM1S cells: IKZF1; format: cell-based; set-up: key: A represents a no degradation observed at 30 μM; B represents trace degradation at 30 μM (below 20%); C represents weak degradation at 30 μM (below 50%); D represents degradation at 30 μM (>90%); E represents degradation at 3 μM (>90%); F represents degradation at 0.3 μM (>90%); conditions: MM1S cells, 0.3, 3 and 30 μM, 6 hours
T3 construct: endogenous in cells; host or cells: MM1S (ATCC CRL-2974)
T3 sequence (Q96SW2 whole entry partner): as the sequence (Q96SW2 whole entry partner) above
T3 sequence (Q16531 2-1140 partner limits assumed): as the sequence (Q16531 2-1140 partner limits assumed) above
T3 sequence (Q13422 whole entry): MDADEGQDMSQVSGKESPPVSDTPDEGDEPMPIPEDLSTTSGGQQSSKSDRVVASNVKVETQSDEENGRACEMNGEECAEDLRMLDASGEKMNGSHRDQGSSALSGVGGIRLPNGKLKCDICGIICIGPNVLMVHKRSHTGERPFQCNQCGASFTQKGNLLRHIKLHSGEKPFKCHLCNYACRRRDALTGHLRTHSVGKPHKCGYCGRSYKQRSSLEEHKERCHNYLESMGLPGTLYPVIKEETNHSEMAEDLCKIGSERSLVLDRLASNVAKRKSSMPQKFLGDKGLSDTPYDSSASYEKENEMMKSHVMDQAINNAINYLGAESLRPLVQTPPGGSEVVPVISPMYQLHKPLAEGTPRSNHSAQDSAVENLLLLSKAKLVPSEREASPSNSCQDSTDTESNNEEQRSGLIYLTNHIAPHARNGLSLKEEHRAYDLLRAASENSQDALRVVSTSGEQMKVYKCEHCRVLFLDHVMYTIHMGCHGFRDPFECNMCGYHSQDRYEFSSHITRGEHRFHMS
Method: as §1

[2] = target: T4, Full length wild-type cereblon CRBN (Homo sapiens, UniProt Q96SW2); experiment: Fluorescence polarization (FP) assay, cereblon binding
T4 construct: Full length wild-type cereblon CRBN (80.0 nM, 10 μL) was incubated in assay buffer
T4 sequence (Q96SW2 whole entry): as the sequence (Q96SW2 whole entry partner) above
Method in brief: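 Full-length wild-type human CRBN (80.0 nM) was preincubated with compound for 30 min at room temperature in 20 mM HEPES pH 8.0, 150 NaCl, 0.5 mM TCEP and 0.05% Tween 20. A Cy5-type thalidomide-linked fluorescent probe was then added. The FP signal was normalized to the DMSO control to derive IC50.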

GSPT1 [3] = target: T2, GSPT1; experiment: Immunofluorescence assay for GSPT1 degradation in CAL-51 cells (Example 4); format: cell-based; set-up: host or cells: CAL-51; conditions: compounds with code A; read-out: DC50 value
Method: The representative compounds were tested in an immunofluorescence assay for their activity to bind to degrade GSPT1. […] Compounds were stored at 10 mM DMSO stocks. […] Cells were subsequently rinsed with PBS and fixed in 10% Formalin solution (50 μl, Sigma HT5011)) for 20 mins at room temperature. […] Following three further PBS washes, […] blocking buffer (1% BSA, Sigma A4503, in PBS) was added for 45 min for signal-to-noise reduction.
Primary antibody (human GSPT1, Sigma HPA052488) was diluted in blocking buffer (dil.1/300, 35 μl/well) and incubated with the cells overnight at 4° C. […] After three final PBS washes, samples were conserved in 100 μl PBS in the dark, until measurement. Image acquisition was performed on the Operetta High-Content Imager (Perkin-Elmer). […] For the determination of GSPT1 DC50 values, a custom algorithm implemented in the PerkinElmer image analysis software Harmony-Acapella® was developed. After user-defined setting of adjustment parameters, the analysis was run identically without human intervention for all image fields. DAPI staining of the nuclei was used to determine the location of cells using standard nuclei detection modules. Segmentation artifacts were removed by threshold-based filters for area, roundness and intensity. The outline of the cells was determined analogously from the sum of the normalized, smoothed DAPI and Actin channel, starting from each nucleus.
GSPT1 degradation (DC50) was calculated after normalization to controls and data import in CDD vault Database, using non-linear regression.

[4] = bounds stated in the text lists b2059-b2061, read-out: IC50 value
[5] = cereblon binding, class code, read-out: rFP IC50

| Structure (SMILES) | IKZF3 degradation (IKZF3 (Aiolos)) | GSPT1 degradation (GSPT1 [1]) | IKZF1 degradation (IKZF1 (Ikaros)) | IC50 [2, 4] [nM] | IC50 [2, 5] [nM] | DC50 (GSPT1 [3]) [nM] |
| --- | --- | --- | --- | --- | --- | --- |
| O=C1CCC(N2Cc3ccc(COC(=O)Nc4cccc(OC(F)(F)F)c4)cc3C2=O)C(=O)N1 (stereo not drawn) [Compound 3] | A | F (F represents degradation at 0.3 μM (>90%)) | A | < 1700 | 1100 to 1700 |  |
| O=C1CCC(N2Cc3ccc(COC(=O)Nc4cc(Cl)cc(OC(F)(F)F)c4)cc3C2=O)C(=O)N1 (stereo not drawn) [Compound 11] |  |  |  |  |  | ≤ 30 |
| O=C1CCC(N2Cc3ccc(COC(=O)Nc4ccc(N5CCCCC5)nc4)cc3C2=O)C(=O)N1 (stereo not drawn) [Compound 15] |  | F (F represents degradation at 0.3 μM (>90%)) | A | < 1700 | 500 to 1100 |  |
| O=C1CCC(N2Cc3ccc(COC(=O)Nc4ccc(-c5ccccc5)nc4)cc3C2=O)C(=O)N1 (stereo not drawn) [Compound 42] | A | F (F represents degradation at 0.3 μM (>90%)) | A |  |  |  |
| CC(C)(C)c1ccc(NC(=O)OCc2ccc3c(c2)C(=O)N(C2CCC(=O)NC2=O)C3)cn1 (stereo not drawn) [Compound 43] |  | F (F represents degradation at 0.3 μM (>90%)) | A |  |  |  |
| CC(C)(C)c1ccc(NC(=O)OCc2ccc3c(c2)C(=O)N(C2CCC(=O)NC2=O)C3)cc1 (stereo not drawn) [Compound 47] | A | F (F represents degradation at 0.3 μM (>90%)) | A | < 1700 | 1100 to 1700 |  |
| Cc1c(Cl)cc(NC(=O)OCc2ccc3c(c2)C(=O)N(C2CCC(=O)NC2=O)C3)cc1OCCN1CCOCC1 (stereo not drawn) [Compound 48] |  | F (F represents degradation at 0.3 μM (>90%)) | A | < 1700 | 1100 to 1700 |  |
